Results on 3 compounds are retold here after US20080299234A1, “Medication Comprising Plant Extracts as a Lipase Inhibitor” (priority 2005, published 2008).

The test system of series [1] is postprandial triglyceride values in the plasma of rats. Briefly: lipid stress test in rats with Triton WR-1339 (postprandial rise in plasma triglyceride values). The series is classed as in vivo. On the procedure: For further examination and verification of the results determined in vitro, the triglyceride-reducing effect was tested in an animal experiment.
To this end a lipid stress test was carried out in rats with Triton WR-1339 to inhibit the triglyceride elimination from the blood and the postprandial rise in plasma triglyceride values over four hours The following test substances were used:
Orlistat as positive control.
As result, the rise in postprandial triglyceride values in the plasma of rats after administration of the test substances was recorded. […] They include linseed, sunflower, marigold and propolis.

Series [2] has as its target T1, pancreatic lipase (Homo sapiens, UniProt P16233).
T1 sequence (P16233 17-465): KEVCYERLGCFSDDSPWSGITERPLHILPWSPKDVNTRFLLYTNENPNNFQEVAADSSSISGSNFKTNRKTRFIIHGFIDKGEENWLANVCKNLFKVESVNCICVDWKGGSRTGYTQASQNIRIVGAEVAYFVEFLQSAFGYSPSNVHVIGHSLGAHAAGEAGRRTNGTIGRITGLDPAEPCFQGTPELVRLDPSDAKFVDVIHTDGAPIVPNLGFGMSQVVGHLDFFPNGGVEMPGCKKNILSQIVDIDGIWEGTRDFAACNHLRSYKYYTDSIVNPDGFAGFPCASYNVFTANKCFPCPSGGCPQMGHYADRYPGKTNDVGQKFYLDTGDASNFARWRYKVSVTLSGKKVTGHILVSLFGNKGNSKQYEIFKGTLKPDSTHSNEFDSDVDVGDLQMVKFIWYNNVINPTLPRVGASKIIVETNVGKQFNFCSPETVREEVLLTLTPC
The note with it: application of Orlistat; cited from earlier work.

Series [3] deals with triglyceride. The note with it: Tsujita et al. 1996; Kagawa et al. 1996, 1998; cited from earlier work.

With `CCCCCCCCCCC[C@@H](C[C@@H]1OC(=O)[C@H]1CCCCCC)OC(=O)[C@H](CC(C)C)NC=O` [Orlistat, Tetrahydrolipstatin], the “triglyceride values as a function of the time after food intake (in words)” value in series [1] (rat plasma after lipid stress test, experimental period of four hours (FIG. 2)) is reported as “the lowest”. For the same compound, the undesired side effects entry in series [2] is “oily or fatty stools”.

As to “VVYP (UniProt P02070 32-35, looked up, fragment) [fragment 32-35 of the β-chain of bovine haemoglobin]”, the “triglyceride-reducing (literature)” value in series [3] was “triglyceride-reducing”.

For the compound protamine, the “triglyceride-reducing (literature)” value in series [3] is reported as “triglyceride reducing”. Moreover, the “triglyceride-reducing effect (in words)” value in series [1] (rats, lipid stress test with Triton WR-1339, postprandial plasma triglyceride rise (FIG. 1)) is “no triglyceride-reducing effect was found”.
